The assay deals with collagen induced platelet aggregation. The assay can be described thus: In Vitro Inhibition of Platelet Aggregation (collagen induced, rabbit platelet-rich plasma). It counts as cell-based. Conditions: Oryctolagus cuniculus, 10 min; for inhibition at 60 µM: 6 × 10^^-5 mol./l.; for inhibition at 6 µM: 6 × 10^^-6 mol./l.; for inhibition at 600 µM: 6 × 10^^-4 mol./l. The method, then:
The ability of the compounds of the present invention to inhibit platelet aggregation in vitro is measured according to the method of Born, et al., J. Physiol., 168, 178 (1963) and comprises the following procedure: Anesthetized male rabbits are bled from a carotid artery into plastic centrifuge tubes containing 0.1 volume 3% sodium citrate. Platelet-rich plasma is separated by centrifugation at 100 G for 10 minutes at 20° C. […] After 10 minutes of incubation with the platelet-rich plasma at room temperature, collagen, a protein known to cause platelet aggregation, is added (0.27 ml. collagen/4 ml. plasma) and changes in the optical density are followed with a Spectronic 20 colorimeter attached to a Houston Instrument TY Recorder. Platelet aggregation is indicated by a decrease in optical density. The relative potency of the compounds of the present invention are thus rated on their ability to inhibit (percent) collagen induced platelet aggregation.

Counter-ions that a name gives are not always drawn.

Data on 44 molecules can be found in US3950525A, “Relaxation of smooth muscle in a mammal” (Pfizer Inc., priority 1975, dated 1976).

As usually defined, the inhibition is the share of the control response that was lost under treatment. Read a low inhibition as a weak effect. For the molecule `C=CCN(CC=C)c1cc(-c2cccs2)ncn1`, the inhibition at 60 µM worked out at 50% and the inhibition at 6 µM worked out at 40%.

For `CCCC(=O)Nc1cccc(-c2cc(N(CC)CC)ncn2)c1`, 600 µM produced 36% inhibition and the inhibition at 60 µM came to 8%.

The molecule `CCCCN(CCCC)c1cc(-c2cccc(NC(C)=O)c2)ncn1` showed an inhibition at 600 µM of 15%.

As for `CCN(CC)c1cc(-c2cccc(NC(=O)NC)c2)ncn1`, the inhibition at 600 µM was found to be 23%.

`CCN(CC)c1cc(-c2cccc(NC(=S)NC)c2)ncn1` returned an inhibition at 600 µM of 4.9%.

Take `CCN(CC)c1cc(-c2cccc(NC(=O)OC)c2)ncn1`: testing at 600 µM gave an inhibition of 95% and at 60 µM the inhibition was 11%.

In turn, `CCCN(CCC)c1cc(-c2cccc(NS(C)(=O)=O)c2)ncn1` displayed an inhibition at 600 µM of 94% and an inhibition at 60 µM of 3%.

As for `CCN(CCO)c1cc(-c2ccc(OC)cc2)ncn1`, the inhibition at 600 µM was found to be 90%, the inhibition at 60 µM came out at 71% and the inhibition at 6 µM came out at 55%.

Take `C=CCN(CC=C)c1cc(-c2ccc(OC)cc2)ncn1`: the inhibition at 600 µM was 90% and testing at 6 µM gave an inhibition of 55%.

In the case of `COc1ccc(-c2cc(N3CCN(C)CC3)ncn2)cc1`, the inhibition at 600 µM worked out at 85%, testing at 60 µM gave an inhibition of 55% and at 6 µM the inhibition was 14%.

Molecule `CCCN(CCC)c1cc(-c2ccc(OC)cc2)ncn1` displayed an inhibition at 600 µM of 91%, an inhibition at 60 µM of 77% and an inhibition at 6 µM of 64%.

On to `CN1CCN(c2cc(-c3ccc(Cl)cc3)ncn2)CC1` [4-(4-Methyl-1-piperazinyl)-6-(p-chlorophenyl)pyrimidine hydrochloride], for which the inhibition at 600 µM stood at 99%, the inhibition at 60 µM worked out at 65% and the inhibition at 6 µM came out at 2%.

`CN1CCN(c2cc(-c3ccccc3)ncn2)CC1` [4-(4-Methyl-1-piperazinyl)-6-phenylpyrimidine dihydrochloride]: at 600 µM the inhibition was 99%, the inhibition at 60 µM was found to be 99% and the inhibition at 6 µM came out at 59%.

`CCc1c(-c2ccco2)ncnc1N(CC)CC` [Ar=2-furyl; R1=C2H5; R2=C2H5; R3=C2H5] displayed an inhibition at 60 µM of 30%.

`CCN(CC)c1cc(-c2cccs2)ncn1` [Ar=2-thienyl; R1=C2H5; R2=C2H5; R3=H, 4-diethylamino-6-(2-thienyl)pyrimidine] returned an inhibition at 600 µM of 94% and an inhibition at 6 µM of 75%.

`CCNc1cc(-c2cccs2)ncn1` [Ar=2-thienyl; R1=C2H5; R2=H; R3=H] gave an inhibition at 600 µM of 99%, an inhibition at 60 µM of 75% and an inhibition at 6 µM of 35%.

`CCN(CC(F)(F)F)c1cc(-c2cccs2)ncn1` [Ar=2-thienyl; R1=CF3CH2; R2=C2H5; R3=H]: the inhibition at 600 µM worked out at 75%, at 60 µM the inhibition was 65% and the inhibition at 6 µM was 58%.

In turn, `FC(F)(F)CNc1cc(-c2cccs2)ncn1` [Ar=2-thienyl; R1=CF3CH2; R2=H; R3=H] registered an inhibition at 60 µM of 81% and an inhibition at 6 µM of 14%.

In turn, `CN(C)c1cc(-c2cccs2)ncn1` [Ar=2-thienyl; R1=CH3; R2=CH3; R3=H] displayed an inhibition at 600 µM of 94%, an inhibition at 60 µM of 82% and an inhibition at 6 µM of 59%.

As for `Nc1cc(-c2cccs2)ncn1` [Ar=2-thienyl; R1=H; R2=H; R3=H], the inhibition at 600 µM stood at 91% and the inhibition at 60 µM was 9%.

Molecule `CCCN(CCC)c1cc(-c2cccs2)ncn1` [Ar=2-thienyl; R1=n-C3H7; R2=n-C3H7; R3=H] showed an inhibition at 600 µM of 60%, an inhibition at 60 µM of 60% and an inhibition at 6 µM of 66%.

`CCN(CC)c1cc(-c2cccc(N(C)C)c2)ncn1` [Ar=3-(CH3)2NC6H4; R1=C2H5; R2=C2H5; R3=H, 4-Diethylamino-6-(m-dimethylaminophenyl)pyrimidine hydrochloride] came in with an inhibition at 600 µM of 89%, an inhibition at 60 µM of 95% and an inhibition at 6 µM of 85%.

As for `CCCN(CCC)c1cc(-c2cccc(C(F)(F)F)c2)ncn1` [Ar=3-CF3C6H4; R1=n-C3H7; R2=n-C3H7; R3=H, 4-Di(n-propyl)amino-6-(m-trifluoromethylphenyl)pyrimidine hydrochloride], at 600 µM the inhibition was 99% and at 60 µM the inhibition was 50%.

`CC(=O)Nc1cccc(-c2cc(N3CCCC3)ncn2)c1` [Ar=3-CH3CONHC6H4; R1,R2=--(CH2)4--; R3=H] came in with an inhibition at 600 µM of 94% and an inhibition at 60 µM of 30%.

Turning to `CC(=O)Nc1cccc(-c2cc(N(C)C)ncn2)c1` [Ar=3-CH3CONHC6H4; R1=CH3; R2=CH3; R3=H], the inhibition at 600 µM came to 93% and the inhibition at 60 µM stood at 13%.

As for `Nc1cccc(-c2cc(N3CCCC3)ncn2)c1` [Ar=3-NH2C6H4; R1,R2=--(CH2)4--; R3=H], the inhibition at 600 µM came out at 11%.

In the case of `CCN(CC)c1cc(-c2cccc(N)c2)ncn1` [Ar=3-NH2C6H4; R1=C2H5; R2=C2H5; R3=H, 4-Diethylamino-6-(m-aminophenyl)pyrimidine dihydrochloride], at 60 µM the inhibition was 67% and the inhibition at 6 µM was 41%.

`CCCN(CCC)c1cc(-c2cccc(N)c2)ncn1` [Ar=3-NH2C6H4; R1=n-C3H7; R2=n-C3H7; R3=H] had an inhibition at 600 µM of 95%, an inhibition at 60 µM of 97% and an inhibition at 6 µM of 32%.

Regarding `O=[N+]([O-])c1cccc(-c2cc(N3CCCC3)ncn2)c1` [Ar=3-NO2C6H4; R1,R2=--(CH2)4--; R3=H], testing at 600 µM gave an inhibition of 94% and at 60 µM the inhibition was 25%.

As to `COc1ccc(-c2cc(N3CCCC3)ncn2)cc1` [Ar=4-CH3OC6H4; R1,R2=--(CH2)4--; R3=H], the inhibition at 600 µM was found to be 92%, the inhibition at 60 µM amounted to 92% and the inhibition at 6 µM was 39%.

With `CCc1c(-c2ccc(OC)cc2)ncnc1N(CC)CC` [Ar=4-CH3OC6H4; R1=C2H5; R2=C2H5; R3=C2H5], 6 µM produced 42% inhibition.

Molecule `COc1ccc(-c2cc(N(C)C)ncn2)cc1` [Ar=4-CH3OC6H4; R1=CH3; R2=CH3; R3=H] registered an inhibition at 600 µM of 89%, an inhibition at 60 µM of 88% and an inhibition at 6 µM of 48%.

`CCNc1cc(-c2ccc(OC)cc2)ncn1` [Ar=4-CH3OC6H4; R1=H; R2=C2H5; R3=H] returned an inhibition at 600 µM of 92%, an inhibition at 60 µM of 64% and an inhibition at 6 µM of 24%.

`CNc1cc(-c2ccc(OC)cc2)ncn1` [Ar=4-CH3OC6H4; R1=H; R2=CH3; R3=H] showed an inhibition at 600 µM of 76% and an inhibition at 60 µM of 13%.

Consider `COc1ccc(-c2cc(N)ncn2)cc1` [Ar=4-CH3OC6H4; R1=H; R2=H; R3=H], for which the inhibition at 600 µM came to 72%, the inhibition at 60 µM is 24% and 6 µM produced 3% inhibition.

Take `COc1ccc(-c2cc(NCC(C)C)ncn2)cc1` [Ar=4-CH3OC6H4; R1=H; R2=i-C4H9; R3=H]: testing at 600 µM gave an inhibition of 76%, testing at 60 µM gave an inhibition of 54% and at 6 µM the inhibition was 24%.

On to `Clc1ccc(-c2cc(N3CCCC3)ncn2)cc1` [Ar=4-ClC6H4; R1,R2=--(CH2)4--; R3=H, 4-(1-Pyrrolidinyl)-6-(p-chlorophenyl)pyrimidine hydrochloride], for which at 600 µM the inhibition was 99% and 60 µM produced 21% inhibition.

For `CCN(CC)c1cc(-c2ccc(Cl)cc2)ncn1` [Ar=4-ClC6H4; R1=C2H5; R2=C2H5; R3=H, 4-Diethylamino-6-(p-chlorophenyl)pyrimidine hydrochloride], the inhibition at 60 µM is 73% and the inhibition at 6 µM worked out at 32%.

Consider `CCN(CCO)c1cc(-c2ccc(Cl)cc2)ncn1` [Ar=4-ClC6H4; R1=C2H5; R2=HO(CH2)2; R3=H], for which 60 µM produced 57% inhibition and the inhibition at 6 µM was 18%.

As for `FC(F)(F)CNc1cc(-c2ccc(Cl)cc2)ncn1` [Ar=4-ClC6H4; R1=CF3CH2; R2=H; R3=H, 4-(2,2,2-Trifluoroethylamino)-6-(p-chlorophenyl)pyrimidine hydrochloride], the inhibition at 600 µM was 86% and 60 µM produced 18% inhibition.

In the case of `CN(C)c1cc(-c2ccc(Cl)cc2)ncn1` [Ar=4-ClC6H4; R1=CH3; R2=CH3; R3=H, 4-Dimethylamino-6-(p-chlorophenyl)pyrimidine hydrochloride], the inhibition at 600 µM amounted to 99%, 60 µM produced 58% inhibition and 6 µM produced 7% inhibition.

On to `CCCN(CCC)c1cc(-c2ccc(Cl)cc2)ncn1` [Ar=4-ClC6H4; R1=n-C3H7; R2=n-C3H7; R3=H, 4-Di(n-propyl)amino-6-(p-chlorophenyl)pyrimidine hydrochloride], for which the inhibition at 600 µM stood at 84% and the inhibition at 60 µM was 70%.

In the case of `c1ccc(-c2cc(N3CCOCC3)ncn2)cc1` [Ar=C6H5; R1,R2=--(CH2)2O(CH2)2--; R3=H, 4-(4-Morpholinyl)-6-phenylpyrimidine hydrochloride], at 600 µM the inhibition was 94%, the inhibition at 60 µM turned out to be 75% and the inhibition at 6 µM is 37%.

In turn, `c1ccc(-c2cc(N3CCCC3)ncn2)cc1` [Ar=C6H5; R1,R2=--(CH2)4--; R3=H, 4-(1-Pyrrolidinyl)-6-phenylpyrimidine hydrochloride] came in with an inhibition at 600 µM of 98%, an inhibition at 60 µM of 70% and an inhibition at 6 µM of 6%.
